Experimental data as given in ChEMBL document CHEMBL3991601, “The target landscape of clinical kinase drugs” (Science, 2017).
Calls of active or inactive are those of the source.

Experiments:
[1] = target: Serine/threonine-protein kinase Nek7 (Homo sapiens, UniProt Q8TDX7)
[2] = target: T1, Dual specificity mitogen-activated protein kinase kinase 4 (Homo sapiens, UniProt P45985)
T1 sequence (P45985 whole entry): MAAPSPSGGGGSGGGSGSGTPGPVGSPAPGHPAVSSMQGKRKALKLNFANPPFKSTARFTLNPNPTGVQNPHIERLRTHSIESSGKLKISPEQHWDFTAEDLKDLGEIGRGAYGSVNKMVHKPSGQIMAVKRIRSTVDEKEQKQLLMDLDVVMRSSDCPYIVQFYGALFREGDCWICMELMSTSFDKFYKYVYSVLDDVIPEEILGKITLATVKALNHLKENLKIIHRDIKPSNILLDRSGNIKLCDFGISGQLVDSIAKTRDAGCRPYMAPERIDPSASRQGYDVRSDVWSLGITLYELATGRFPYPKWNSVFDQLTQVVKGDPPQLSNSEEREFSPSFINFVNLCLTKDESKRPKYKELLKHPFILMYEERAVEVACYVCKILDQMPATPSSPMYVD

[3] = target: T2, ATP-dependent RNA helicase DHX30 (Homo sapiens, UniProt Q7L2E3)
T2 sequence (Q7L2E3 whole entry): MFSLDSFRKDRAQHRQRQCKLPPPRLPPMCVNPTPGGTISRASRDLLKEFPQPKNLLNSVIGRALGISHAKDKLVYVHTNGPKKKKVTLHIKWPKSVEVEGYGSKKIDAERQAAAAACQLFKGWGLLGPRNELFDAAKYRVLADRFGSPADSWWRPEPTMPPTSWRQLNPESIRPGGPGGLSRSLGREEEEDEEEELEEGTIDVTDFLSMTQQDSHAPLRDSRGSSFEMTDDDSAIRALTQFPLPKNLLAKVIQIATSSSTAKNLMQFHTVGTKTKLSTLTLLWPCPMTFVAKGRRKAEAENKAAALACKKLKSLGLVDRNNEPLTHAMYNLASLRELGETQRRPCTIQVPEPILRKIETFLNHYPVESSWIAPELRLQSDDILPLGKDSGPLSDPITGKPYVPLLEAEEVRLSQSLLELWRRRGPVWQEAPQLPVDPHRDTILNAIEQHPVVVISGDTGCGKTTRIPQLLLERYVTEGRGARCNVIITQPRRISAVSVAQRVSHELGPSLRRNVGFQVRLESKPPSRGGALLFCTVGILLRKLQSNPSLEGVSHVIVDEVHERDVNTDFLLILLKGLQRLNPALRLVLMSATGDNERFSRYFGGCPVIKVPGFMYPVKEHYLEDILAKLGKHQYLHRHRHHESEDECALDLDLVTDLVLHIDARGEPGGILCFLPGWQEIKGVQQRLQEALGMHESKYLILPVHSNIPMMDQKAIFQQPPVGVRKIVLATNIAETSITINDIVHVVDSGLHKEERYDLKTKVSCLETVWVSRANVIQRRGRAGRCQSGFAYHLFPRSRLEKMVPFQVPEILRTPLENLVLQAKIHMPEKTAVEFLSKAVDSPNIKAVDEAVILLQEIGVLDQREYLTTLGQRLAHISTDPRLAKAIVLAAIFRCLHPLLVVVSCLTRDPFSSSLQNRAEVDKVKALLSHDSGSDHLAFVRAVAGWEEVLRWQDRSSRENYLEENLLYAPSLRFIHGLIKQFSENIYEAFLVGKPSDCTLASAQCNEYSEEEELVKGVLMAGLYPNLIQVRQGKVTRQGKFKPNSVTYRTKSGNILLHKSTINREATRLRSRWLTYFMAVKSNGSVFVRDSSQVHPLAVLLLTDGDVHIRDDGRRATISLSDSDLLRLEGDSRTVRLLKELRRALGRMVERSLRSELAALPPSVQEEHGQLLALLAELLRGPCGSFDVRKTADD

[4] = target: MAP kinase-activated protein kinase 3 (Homo sapiens, UniProt Q16644)
[5] = target: Tyrosine-protein kinase Lck (Homo sapiens, UniProt P06239)
Myosin-10 = Myosin-10 (Homo sapiens, UniProt P35580)
[6] = target: Serine/threonine-protein kinase 38-like (Homo sapiens, UniProt Q9Y2H1)
Misshapen-like kinase 1 = Misshapen-like kinase 1 (Homo sapiens, UniProt Q8N4C8)
[7] = target: T3, Tyrosine-protein kinase Mer (Homo sapiens, UniProt Q12866)
T3 sequence (Q12866 whole entry): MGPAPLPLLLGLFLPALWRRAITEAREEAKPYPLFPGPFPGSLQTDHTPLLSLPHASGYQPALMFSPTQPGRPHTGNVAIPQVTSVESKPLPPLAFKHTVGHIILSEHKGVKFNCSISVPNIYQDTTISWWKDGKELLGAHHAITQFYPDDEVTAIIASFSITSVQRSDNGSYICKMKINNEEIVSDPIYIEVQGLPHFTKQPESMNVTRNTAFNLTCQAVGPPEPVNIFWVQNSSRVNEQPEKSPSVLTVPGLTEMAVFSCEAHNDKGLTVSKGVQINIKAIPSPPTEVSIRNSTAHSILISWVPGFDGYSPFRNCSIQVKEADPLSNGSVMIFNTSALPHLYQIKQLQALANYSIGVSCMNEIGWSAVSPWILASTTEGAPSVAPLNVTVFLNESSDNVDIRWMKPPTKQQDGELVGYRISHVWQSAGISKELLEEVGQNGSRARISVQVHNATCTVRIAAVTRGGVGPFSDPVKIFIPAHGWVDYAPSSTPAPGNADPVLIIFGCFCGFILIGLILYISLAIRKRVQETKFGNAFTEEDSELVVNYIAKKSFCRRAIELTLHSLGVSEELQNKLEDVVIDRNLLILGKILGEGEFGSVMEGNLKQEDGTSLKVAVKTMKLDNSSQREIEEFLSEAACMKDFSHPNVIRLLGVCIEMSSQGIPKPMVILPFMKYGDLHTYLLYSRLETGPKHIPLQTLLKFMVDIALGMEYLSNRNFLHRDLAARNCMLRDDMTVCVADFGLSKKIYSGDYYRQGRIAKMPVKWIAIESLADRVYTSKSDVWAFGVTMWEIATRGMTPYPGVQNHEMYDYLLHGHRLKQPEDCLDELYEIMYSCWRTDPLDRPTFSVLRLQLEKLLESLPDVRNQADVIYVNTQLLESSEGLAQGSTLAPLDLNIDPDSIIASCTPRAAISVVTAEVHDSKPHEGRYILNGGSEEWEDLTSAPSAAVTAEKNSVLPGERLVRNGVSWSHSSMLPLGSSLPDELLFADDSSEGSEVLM
Note: in the data inactive means no Kd found up to 30 µM.

Sequence of Tyrosine-protein kinase Lck (P06239 whole entry): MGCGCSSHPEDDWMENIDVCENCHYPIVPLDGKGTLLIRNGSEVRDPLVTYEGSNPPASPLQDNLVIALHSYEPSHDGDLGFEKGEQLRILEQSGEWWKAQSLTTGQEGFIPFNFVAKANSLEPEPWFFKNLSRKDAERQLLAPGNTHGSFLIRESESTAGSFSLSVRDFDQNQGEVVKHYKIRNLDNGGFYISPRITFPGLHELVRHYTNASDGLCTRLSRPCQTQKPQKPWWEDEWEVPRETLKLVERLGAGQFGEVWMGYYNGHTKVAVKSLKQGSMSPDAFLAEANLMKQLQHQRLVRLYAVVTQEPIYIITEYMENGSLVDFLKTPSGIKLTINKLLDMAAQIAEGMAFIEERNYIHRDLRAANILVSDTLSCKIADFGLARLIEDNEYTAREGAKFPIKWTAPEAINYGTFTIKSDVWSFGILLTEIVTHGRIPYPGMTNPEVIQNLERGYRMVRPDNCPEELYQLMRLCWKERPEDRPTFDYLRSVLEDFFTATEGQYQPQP
Sequence of Serine/threonine-protein kinase Nek7 (Q8TDX7 whole entry): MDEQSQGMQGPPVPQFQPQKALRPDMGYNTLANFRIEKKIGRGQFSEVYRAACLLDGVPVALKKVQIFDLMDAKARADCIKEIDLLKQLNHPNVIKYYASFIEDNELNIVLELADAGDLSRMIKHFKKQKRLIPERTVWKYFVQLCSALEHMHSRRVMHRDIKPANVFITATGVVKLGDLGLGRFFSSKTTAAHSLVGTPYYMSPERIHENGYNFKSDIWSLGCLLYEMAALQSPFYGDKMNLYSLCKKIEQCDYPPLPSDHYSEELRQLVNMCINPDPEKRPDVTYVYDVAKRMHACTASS
Sequence of Serine/threonine-protein kinase 38-like (Q9Y2H1 whole entry): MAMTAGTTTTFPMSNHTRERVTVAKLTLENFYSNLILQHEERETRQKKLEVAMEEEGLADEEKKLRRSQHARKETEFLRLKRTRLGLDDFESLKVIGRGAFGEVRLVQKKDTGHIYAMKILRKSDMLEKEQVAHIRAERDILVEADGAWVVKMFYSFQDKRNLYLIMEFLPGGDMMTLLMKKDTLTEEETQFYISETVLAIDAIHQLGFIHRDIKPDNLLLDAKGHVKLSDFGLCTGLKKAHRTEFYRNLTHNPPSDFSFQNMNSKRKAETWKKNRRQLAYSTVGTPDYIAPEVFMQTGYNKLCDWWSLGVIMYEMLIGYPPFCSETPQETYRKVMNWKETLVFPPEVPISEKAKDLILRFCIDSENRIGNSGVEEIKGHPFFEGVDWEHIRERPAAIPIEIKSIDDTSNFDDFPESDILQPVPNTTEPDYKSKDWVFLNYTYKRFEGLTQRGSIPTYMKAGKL
Sequence of Misshapen-like kinase 1 (Q8N4C8 whole entry): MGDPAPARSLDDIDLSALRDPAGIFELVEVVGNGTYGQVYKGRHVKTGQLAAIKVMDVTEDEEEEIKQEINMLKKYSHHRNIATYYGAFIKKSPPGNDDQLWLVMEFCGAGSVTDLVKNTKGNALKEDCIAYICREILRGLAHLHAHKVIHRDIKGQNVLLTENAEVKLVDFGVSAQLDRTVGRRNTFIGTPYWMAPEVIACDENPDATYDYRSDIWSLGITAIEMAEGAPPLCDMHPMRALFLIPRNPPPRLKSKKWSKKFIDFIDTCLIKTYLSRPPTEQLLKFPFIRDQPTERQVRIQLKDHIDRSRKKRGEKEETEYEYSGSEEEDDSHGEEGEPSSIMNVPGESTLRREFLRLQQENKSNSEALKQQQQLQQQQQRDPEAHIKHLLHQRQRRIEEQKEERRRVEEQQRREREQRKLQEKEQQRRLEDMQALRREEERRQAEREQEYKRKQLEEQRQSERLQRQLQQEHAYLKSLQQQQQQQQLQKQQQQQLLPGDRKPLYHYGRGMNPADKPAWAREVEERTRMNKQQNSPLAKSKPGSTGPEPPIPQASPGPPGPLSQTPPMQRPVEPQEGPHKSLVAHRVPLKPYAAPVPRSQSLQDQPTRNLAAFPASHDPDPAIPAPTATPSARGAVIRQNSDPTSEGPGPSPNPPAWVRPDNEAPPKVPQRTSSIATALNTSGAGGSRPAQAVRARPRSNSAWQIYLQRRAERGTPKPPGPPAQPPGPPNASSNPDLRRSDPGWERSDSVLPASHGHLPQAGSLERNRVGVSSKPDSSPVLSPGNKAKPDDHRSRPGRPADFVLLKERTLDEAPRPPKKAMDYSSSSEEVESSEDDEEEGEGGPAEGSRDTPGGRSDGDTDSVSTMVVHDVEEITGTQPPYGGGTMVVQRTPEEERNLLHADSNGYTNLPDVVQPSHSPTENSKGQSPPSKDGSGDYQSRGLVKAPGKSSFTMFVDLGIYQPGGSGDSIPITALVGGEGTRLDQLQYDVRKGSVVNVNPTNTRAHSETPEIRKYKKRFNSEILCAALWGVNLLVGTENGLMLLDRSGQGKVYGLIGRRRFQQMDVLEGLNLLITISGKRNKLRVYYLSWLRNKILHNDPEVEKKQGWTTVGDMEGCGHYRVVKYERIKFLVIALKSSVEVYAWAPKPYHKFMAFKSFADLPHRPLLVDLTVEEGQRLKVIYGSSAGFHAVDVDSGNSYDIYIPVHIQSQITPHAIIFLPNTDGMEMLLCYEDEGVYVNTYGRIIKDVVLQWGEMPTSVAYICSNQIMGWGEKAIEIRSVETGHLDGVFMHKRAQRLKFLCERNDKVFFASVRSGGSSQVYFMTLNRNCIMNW
Sequence of Myosin-10 (P35580 whole entry): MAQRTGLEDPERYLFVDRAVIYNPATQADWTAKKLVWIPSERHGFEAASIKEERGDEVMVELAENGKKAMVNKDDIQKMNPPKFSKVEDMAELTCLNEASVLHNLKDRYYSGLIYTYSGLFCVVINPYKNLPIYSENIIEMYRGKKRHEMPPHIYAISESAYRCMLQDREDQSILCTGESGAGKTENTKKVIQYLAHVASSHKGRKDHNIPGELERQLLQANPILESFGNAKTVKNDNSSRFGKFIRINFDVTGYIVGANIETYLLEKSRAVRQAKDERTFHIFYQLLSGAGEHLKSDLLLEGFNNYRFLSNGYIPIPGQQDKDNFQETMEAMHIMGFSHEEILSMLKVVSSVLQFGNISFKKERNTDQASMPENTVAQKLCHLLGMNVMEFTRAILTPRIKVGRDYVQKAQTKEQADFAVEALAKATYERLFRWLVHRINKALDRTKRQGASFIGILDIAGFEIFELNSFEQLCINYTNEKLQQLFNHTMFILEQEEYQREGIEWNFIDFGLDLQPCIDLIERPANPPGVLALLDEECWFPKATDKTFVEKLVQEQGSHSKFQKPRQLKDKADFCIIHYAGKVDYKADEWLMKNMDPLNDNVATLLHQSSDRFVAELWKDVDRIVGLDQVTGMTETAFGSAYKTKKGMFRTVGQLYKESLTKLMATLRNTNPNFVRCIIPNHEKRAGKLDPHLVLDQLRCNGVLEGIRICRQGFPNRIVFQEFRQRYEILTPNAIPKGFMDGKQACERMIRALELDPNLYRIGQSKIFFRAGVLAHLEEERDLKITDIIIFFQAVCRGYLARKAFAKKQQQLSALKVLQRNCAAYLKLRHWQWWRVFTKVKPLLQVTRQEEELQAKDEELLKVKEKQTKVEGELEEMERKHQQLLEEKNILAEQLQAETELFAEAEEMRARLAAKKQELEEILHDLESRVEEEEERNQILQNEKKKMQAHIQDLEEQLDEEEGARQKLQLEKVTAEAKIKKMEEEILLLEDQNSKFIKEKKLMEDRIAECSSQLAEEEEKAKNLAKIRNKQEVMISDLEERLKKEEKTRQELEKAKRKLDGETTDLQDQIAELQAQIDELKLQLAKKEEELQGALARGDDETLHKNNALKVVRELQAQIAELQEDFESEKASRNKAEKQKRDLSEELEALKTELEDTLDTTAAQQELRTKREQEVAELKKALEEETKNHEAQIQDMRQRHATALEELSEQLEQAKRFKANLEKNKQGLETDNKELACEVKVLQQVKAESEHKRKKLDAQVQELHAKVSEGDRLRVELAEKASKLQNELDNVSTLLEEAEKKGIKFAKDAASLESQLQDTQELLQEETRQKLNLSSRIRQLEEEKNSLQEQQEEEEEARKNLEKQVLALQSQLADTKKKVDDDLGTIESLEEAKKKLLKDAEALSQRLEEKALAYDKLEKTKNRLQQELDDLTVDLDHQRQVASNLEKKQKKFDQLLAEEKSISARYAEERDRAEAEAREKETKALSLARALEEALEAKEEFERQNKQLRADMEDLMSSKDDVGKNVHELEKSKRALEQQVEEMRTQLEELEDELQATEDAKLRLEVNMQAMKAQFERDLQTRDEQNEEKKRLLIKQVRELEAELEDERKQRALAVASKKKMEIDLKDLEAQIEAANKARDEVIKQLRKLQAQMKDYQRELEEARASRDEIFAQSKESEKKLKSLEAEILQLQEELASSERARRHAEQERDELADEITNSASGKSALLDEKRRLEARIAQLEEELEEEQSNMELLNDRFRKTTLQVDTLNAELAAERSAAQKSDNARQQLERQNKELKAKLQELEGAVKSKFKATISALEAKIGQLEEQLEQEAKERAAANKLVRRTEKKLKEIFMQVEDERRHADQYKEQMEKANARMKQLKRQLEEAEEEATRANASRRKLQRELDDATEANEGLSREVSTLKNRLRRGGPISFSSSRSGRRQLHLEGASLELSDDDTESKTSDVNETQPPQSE
Sequence of MAP kinase-activated protein kinase 3 (Q16644 whole entry): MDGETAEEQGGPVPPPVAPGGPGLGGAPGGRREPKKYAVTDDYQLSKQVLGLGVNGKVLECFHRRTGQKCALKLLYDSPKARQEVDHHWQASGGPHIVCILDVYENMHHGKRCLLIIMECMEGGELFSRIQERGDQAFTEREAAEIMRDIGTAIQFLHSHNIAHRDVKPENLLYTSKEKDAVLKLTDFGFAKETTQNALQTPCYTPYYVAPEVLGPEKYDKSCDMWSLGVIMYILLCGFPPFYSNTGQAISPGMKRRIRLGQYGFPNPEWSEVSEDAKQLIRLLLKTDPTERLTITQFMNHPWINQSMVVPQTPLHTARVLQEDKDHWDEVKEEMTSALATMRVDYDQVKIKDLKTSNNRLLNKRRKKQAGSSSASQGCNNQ

SMILES | Kd [1] | Kd [2] | Kd [3] | Kd [4] | Kd [5] | Kd (Myosin-10) | Kd [6] | Kd (Misshapen-like kinase 1) | Kd [7]
Cn1c(=O)c(F)c(Nc2ccc(I)cc2F)c2c(=O)n(C[C@@H](O)CO)cnc21 [TAK-733] | > 30 µM (inactive) | > 30 µM (inactive) | > 30 µM (inactive) | > 30 µM (inactive) | > 30 µM (inactive) | > 30 µM (inactive) | – | – | –
COc1cc2ncnc3c2cc1OCCCCCN(C)Cc1ccc(Br)cc1N3 [JNJ-26483327] | – | – | > 30 µM (inactive) | > 30 µM (inactive) | > 30 µM (inactive) | – | – | – | –
COc1cc2ncnc(Nc3ccc(F)c(Cl)c3)c2cc1NC(=O)/C=C/CN1CCCCC1 [DACOMITINIB ANHYDROUS] | > 30 µM (inactive) | > 30 µM (inactive) | > 30 µM (inactive) | > 30 µM (inactive) | > 30 µM (inactive) | – | > 30 µM (inactive) | – | –
Cc1cc(C(=O)Nc2cc(Oc3ccc4nc(NC(=O)C5CC5)cn4n3)ccc2C)n(C)n1 [TAK-593] | – | – | > 30 µM (inactive) | – | > 30 µM (inactive) | – | – | – | –
O=C(O)c1ccc2c(c1)nc(Nc1cccc(Cl)c1)c1ccncc12 [SILMITASERTIB] | > 30 µM (inactive) | – | – | 0.026 µM (active) | > 30 µM (inactive) | – | > 30 µM (inactive) | > 30 µM (inactive) | –
CCOc1ccn(-c2ccc(F)cc2)c(=O)c1C(=O)Nc1ccc(Oc2ccnc(N)c2Cl)c(F)c1 [BMS-777607] | > 30 µM (inactive) | – | > 30 µM (inactive) | – | – | > 30 µM (inactive) | > 30 µM (inactive) | > 30 µM (inactive) | –
Cn1cnc2c(F)c(Nc3ccc(Br)cc3Cl)c(C(=O)NOCCO)cc21 [SELUMETINIB] | – | – | – | – | – | > 30 µM (inactive) | – | – | –
COc1cc2c(N3CCN(C(=O)Nc4ccc(OC(C)C)cc4)CC3)ncnc2cc1OCCCN1CCCCC1 [TANDUTINIB] | – | – | – | – | – | > 30 µM (inactive) | – | – | –
COc1cc(F)c(F)c(Nc2ccc(I)cc2F)c1NS(=O)(=O)C1(C[C@H](O)CO)CC1 [REFAMETINIB] | > 30 µM (inactive) | – | > 30 µM (inactive) | – | > 30 µM (inactive) | – | > 30 µM (inactive) | > 30 µM (inactive) | –
COc1cc2c(Oc3ccc4[nH]c(C)cc4c3F)ncnc2cc1OCCCN1CCCC1 [CEDIRANIB] | – | – | > 30 µM (inactive) | – | – | > 30 µM (inactive) | – | – | –
CNC(=O)c1ccc(Nc2ncc(C(F)(F)F)c(NCc3nccnc3N(C)S(C)(=O)=O)n2)cc1 [DEFACTINIB] | – | – | > 30 µM (inactive) | – | > 30 µM (inactive) | – | – | – | –
CC(C)(O)CC(=O)NCCn1ccc2ncnc(Nc3ccc(Oc4cccc(C(F)(F)F)c4)c(Cl)c3)c21 [TAK-285] | > 30 µM (inactive) | > 30 µM (inactive) | > 30 µM (inactive) | – | – | – | – | – | –
COc1cc(Nc2ncc(F)c(Nc3ccc4c(n3)N(COP(=O)(O)O)C(=O)C(C)(C)O4)n2)cc(OC)c1OC [FOSTAMATINIB] | > 30 µM (inactive) | > 30 µM (inactive) | > 30 µM (inactive) | – | > 30 µM (inactive) | > 30 µM (inactive) | > 30 µM (inactive) | – | –
CC(C)CC(=O)Nc1[nH]nc2c1CN(C(=O)C1CCN(C)CC1)C2(C)C [PHA-793887] | > 30 µM (inactive) | – | – | – | – | > 30 µM (inactive) | – | – | –
CC[C@@](C)(Nc1ccnc(-c2c[nH]c3ncccc23)n1)C(=O)NCC(F)(F)F [DECERNOTINIB] | – | – | > 30 µM (inactive) | – | > 30 µM (inactive) | > 30 µM (inactive) | – | – | –
C=CCn1c(=O)c2cnc(Nc3ccc(N4CCN(C)CC4)cc3)nc2n1-c1cccc(C(C)(C)O)n1 [ADAVOSERTIB] | – | – | > 30 µM (inactive) | – | – | – | > 30 µM (inactive) | – | > 30 µM (inactive)
O=c1[nH]c([C@@H]2CCCN2)nc2c1oc1ccc(Cl)cc12 | – | – | > 30 µM (inactive) | – | > 30 µM (inactive) | – | > 30 µM (inactive) | – | –
NC(=O)c1ccc(N(C(N)=O)c2c(F)cccc2F)nc1-c1ccc(F)cc1F [VX-702] | > 30 µM (inactive) | > 30 µM (inactive) | > 30 µM (inactive) | > 30 µM (inactive) | > 30 µM (inactive) | – | > 30 µM (inactive) | – | –
COCCN1CCN(Cc2ccc(-c3n[nH]c4c3C(=O)c3c(NC(=O)NN5CCOCC5)cccc3-4)cc2)CC1 [RGB-286638] | – | – | > 30 µM (inactive) | > 30 µM (inactive) | > 30 µM (inactive) | > 30 µM (inactive) | – | – | > 30 µM (inactive)
C[C@@]1(C(=O)Nc2ccc(F)nc2)CCCN1c1nc(Nc2cc(C3CC3)n[nH]2)c2cccn2n1 [BMS-754807] | – | – | – | > 30 µM (inactive) | – | – | – | – | –
CCc1nc(C(N)=O)c(Nc2ccc(N3CCC(N4CCN(C)CC4)CC3)c(OC)c2)nc1NC1CCOCC1 [GILTERITINIB] | – | – | > 30 µM (inactive) | – | > 30 µM (inactive) | – | – | – | –
CCN1CCN(Cc2ccc(Nc3ncc(F)c(-c4cc(F)c5nc(C)n(C(C)C)c5c4)n3)nc2)CC1 [ABEMACICLIB] | – | – | – | > 30 µM (inactive) | > 30 µM (inactive) | – | – | – | –
COc1cccc(Nc2ncnn3ccc(CN4CC[C@@H](N)[C@H](O)C4)c23)c1 [BMS-690514] | – | > 30 µM (inactive) | – | – | 0.514 µM (active) | – | > 30 µM (inactive) | – | –
C=CC(=O)Nc1cccc(Nc2nc(Nc3ccc(N4CCN(C(C)=O)CC4)cc3OC)ncc2C(F)(F)F)c1 [ROCILETINIB] | – | – | – | – | > 30 µM (inactive) | > 30 µM (inactive) | – | – | –
C=CCN(/C=C1/C(=O)O[C@H](COC)[C@@]2(C)C1=C(O)C(=O)C1=C2[C@H](OC(C)=O)C[C@]2(C)C(=O)CC[C@@H]12)CC=C [SONOLISIB] | > 30 µM (inactive) | – | – | – | > 30 µM (inactive) | > 30 µM (inactive) | – | – | –
N#CCNC(=O)c1ccc(-c2ccnc(Nc3ccc(N4CCOCC4)cc3)n2)cc1 [MOMELOTINIB] | > 30 µM (inactive) | – | – | – | – | – | – | – | –
Cc1c(NC(=O)OC[C@@H]2COCCN2)cn2ncnc(Nc3ccc4c(cnn4Cc4cccc(F)c4)c3)c12 [AC-480] | – | – | – | – | > 30 µM (inactive) | > 30 µM (inactive) | – | – | –
COc1ccc(-c2ccc3ncc4c(c3c2)n(-c2ccc(N3CCNCC3)c(C(F)(F)F)c2)c(=O)n4C)cn1 [BGT-226 FREE BASE] | > 30 µM (inactive) | – | – | – | > 30 µM (inactive) | > 30 µM (inactive) | – | > 30 µM (inactive) | –
